Experimental data published in patent publication US20100105655A1, “NOVEL COMPOUNDS 515” (ASTRAZENECA AB, priority 2008, published 2010).

The compounds below were run against T1, IGFR kinase (Homo sapiens, UniProt P08069) (assay: Enzyme assay (c), IGFR kinase, Caliper LabChip). Settings: not given.
T1 construct: purchased Millipore
Assay type: biochemical

T1 sequence (P08069 31-1367): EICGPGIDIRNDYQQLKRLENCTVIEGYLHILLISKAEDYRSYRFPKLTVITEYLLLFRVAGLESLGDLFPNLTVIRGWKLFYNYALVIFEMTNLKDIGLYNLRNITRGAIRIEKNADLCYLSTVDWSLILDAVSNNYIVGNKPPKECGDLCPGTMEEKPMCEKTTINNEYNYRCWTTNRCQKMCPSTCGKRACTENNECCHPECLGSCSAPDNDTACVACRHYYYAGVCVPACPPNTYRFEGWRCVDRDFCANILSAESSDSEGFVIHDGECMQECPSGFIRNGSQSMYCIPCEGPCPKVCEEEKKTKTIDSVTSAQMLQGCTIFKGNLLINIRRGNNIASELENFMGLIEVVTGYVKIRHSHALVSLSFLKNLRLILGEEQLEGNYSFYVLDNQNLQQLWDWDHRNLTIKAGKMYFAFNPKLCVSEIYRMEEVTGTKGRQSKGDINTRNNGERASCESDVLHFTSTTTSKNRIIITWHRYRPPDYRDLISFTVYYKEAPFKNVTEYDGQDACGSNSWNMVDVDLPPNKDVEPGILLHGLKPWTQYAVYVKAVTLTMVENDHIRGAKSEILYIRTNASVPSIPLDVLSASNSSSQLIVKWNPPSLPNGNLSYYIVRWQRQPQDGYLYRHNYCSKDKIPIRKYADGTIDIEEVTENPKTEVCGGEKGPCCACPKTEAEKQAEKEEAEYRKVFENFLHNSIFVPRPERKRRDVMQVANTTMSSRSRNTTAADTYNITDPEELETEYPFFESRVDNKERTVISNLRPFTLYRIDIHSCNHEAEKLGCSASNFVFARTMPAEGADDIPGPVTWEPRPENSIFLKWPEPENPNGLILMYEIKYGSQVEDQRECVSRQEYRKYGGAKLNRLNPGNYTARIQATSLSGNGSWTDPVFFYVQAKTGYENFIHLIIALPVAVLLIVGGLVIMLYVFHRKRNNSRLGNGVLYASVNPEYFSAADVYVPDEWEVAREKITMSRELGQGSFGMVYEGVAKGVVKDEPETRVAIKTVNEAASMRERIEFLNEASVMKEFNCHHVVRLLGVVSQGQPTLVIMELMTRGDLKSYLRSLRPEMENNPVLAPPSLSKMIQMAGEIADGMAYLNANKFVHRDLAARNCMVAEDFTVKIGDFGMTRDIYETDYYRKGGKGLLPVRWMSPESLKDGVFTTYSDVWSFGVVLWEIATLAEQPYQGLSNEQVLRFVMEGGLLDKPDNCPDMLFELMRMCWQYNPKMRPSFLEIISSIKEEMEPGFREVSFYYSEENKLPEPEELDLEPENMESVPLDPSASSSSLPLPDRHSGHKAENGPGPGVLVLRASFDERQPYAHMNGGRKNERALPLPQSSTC

SMILES	IC50 [nM]
COc1cc(N2CC3CN(CCCO)CC(C2)O3)ccc1Nc1ncc(Cl)c(-c2cnc3c(F)cccn23)n1 [Example 204, 3-[7-[4-[[5-chloro-4-(8-fluoroimidazo[1,2-a]pyridin-3-yl)pyrimidin-2-yl]amino]-3-methoxy-phenyl]-9-oxa-3,7-diazabicyclo[3.3.1]nonan-3-yl]propan-1-ol]	19

Same assay, conditions: 30 nM IGFR kinase, 6 uM ATP, 3 uM peptide mix; read-out: IGFR IC50

IC50 [nM]	SMILES
14	COc1cc(N2CC3CN(C(=O)[C@H](C)O)CC(C2)O3)ccc1Nc1ncc(Cl)c(-c2cnc3c(F)cccn23)n1 [Example 213, (2S)-1-[3-[4-[[5-chloro-4-(8-fluoroimidazo[1,2-a]pyridin-3-yl)pyrimidin-2-yl]amino]-3-methoxy-phenyl]-9-oxa-3,7-diazabicyclo[3.3.1]nonan-7-yl]-2-hydroxy-propan-1-one]
18	COc1cc(N2CC3CN(C(=O)[C@@H](C)O)CC(C2)O3)ccc1Nc1ncc(Cl)c(-c2cnc3c(F)cccn23)n1 [Example 214, (2R)-1-[3-[4-[[5-chloro-4-(8-fluoroimidazo[1,2-a]pyridin-3-yl)pyrimidin-2-yl]amino]-3-methoxy-phenyl]-9-oxa-3,7-diazabicyclo[3.3.1]nonan-7-yl]-2-hydroxy-propan-1-one]
9	COc1cc(N2CC3CN(C(C)=O)CC(C2)O3)ccc1Nc1ncc(Cl)c(-c2cnc3c(F)cccn23)n1 [Example 215, 1-[3-[4-[[5-chloro-4-(8-fluoroimidazo[1,2-a]pyridin-3-yl)pyrimidin-2-yl]amino]-3-methoxy-phenyl]-9-oxa-3,7-diazabicyclo[3.3.1]nonan-7-yl]ethanone]
2	COc1cc(C2CCN(CC(=O)N(C)C)CC2)ccc1Nc1ncc(Cl)c(-c2cnc3c(F)cccn23)n1 [Example 216, 2-[4-[4-[[5-chloro-4-(8-fluoroimidazo[1,2-a]pyridin-3-yl)pyrimidin-2-yl]amino]-3-methoxy-phenyl]-1-piperidyl]-N,N-dimethyl-acetamide]
10	COc1cc(OCC(=O)N(C)C)ccc1Nc1ncc(Cl)c(-c2cnc3c(F)cccn23)n1 [Example 217, 2-[4-[[5-chloro-4-(8-fluoroimidazo[1,2-a]pyridin-3-yl)pyrimidin-2-yl]amino]-3-methoxy-phenoxy]-N,N-dimethyl-acetamide]
7	CNC(=O)[C@H](C)Oc1ccc(Nc2ncc(Cl)c(-c3cnc4c(F)cccn34)n2)c(OC)c1 [Example 218, (2S)-2-[4-[[5-chloro-4-(8-fluoroimidazo[1,2-a]pyridin-3-yl)pyrimidin-2-yl]amino]-3-methoxy-phenoxy]-N-methyl-propanamide]
5	COc1cc(N(C)CCN(C)C(=O)CO)ccc1Nc1ncc(Cl)c(-c2cnc3c(F)cccn23)n1 [Example 220, N-[2-[4-[[5-chloro-4-(8-fluoroimidazo[1,2-a]pyridin-3-yl)pyrimidin-2-yl]amino]-3-methoxy-N-methyl-anilino]ethyl]-2-hydroxy-N-methyl-acetamide]
10	COc1cc(N(C)CCN(C)CCO)ccc1Nc1ncc(Cl)c(-c2cnc3c(F)cccn23)n1 [Example 221, 2-[2-[4-[[5-chloro-4-(8-fluoroimidazo[1,2-a]pyridin-3-yl)pyrimidin-2-yl]amino]-3-methoxy-N-methyl-anilino]ethyl-methyl-amino]ethanol]
3	CNC(=O)C1CCN(c2ccc(Nc3ncc(Cl)c(-c4cnc5c(F)cccn45)n3)c(OC)c2)CC1 [Example 222, 1-[4-[[5-chloro-4-(8-fluoroimidazo[1,2-a]pyridin-3-yl)pyrimidin-2-yl]amino]-3-methoxy-phenyl]-N-methyl-piperidine-4-carboxamide]
6	COc1cc(N(CCO)CCO)ccc1Nc1ncc(Cl)c(-c2cnc3c(F)cccn23)n1 [Example 223, 2-[4-[[5-chloro-4-(8-fluoroimidazo[1,2-a]pyridin-3-yl)pyrimidin-2-yl]amino]-N-(2-hydroxyethyl)-3-methoxy-anilino]ethanol]
3	COc1cc(N2CCNCC2=O)ccc1Nc1ncc(Cl)c(-c2cnc3c(F)cccn23)n1 [Example 224, 1-[4-[[5-chloro-4-(8-fluoroimidazo[1,2-a]pyridin-3-yl)pyrimidin-2-yl]amino]-3-methoxy-phenyl]piperazin-2-one]
130	COc1cc(N(C)CC(=O)N(C)C)ccc1Nc1ncc(Cl)c(-c2cnc3c(F)cccn23)n1 [Example 225, 2-[4-[[5-chloro-4-(8-fluoroimidazo[1,2-a]pyridin-3-yl)pyrimidin-2-yl]amino]-3-methoxy-N-methyl-anilino]-N,N-dimethyl-acetamide]
33	CNC(=O)CN(C)c1ccc(Nc2ncc(Cl)c(-c3cnc4c(F)cccn34)n2)c(OC)c1 [Example 226, 2-[4-[[5-chloro-4-(8-fluoroimidazo[1,2-a]pyridin-3-yl)pyrimidin-2-yl]amino]-3-methoxy-N-methyl-anilino]-N-methyl-acetamide]
48	COc1cc(N(C)CC(=O)N2CCNCC2)ccc1Nc1ncc(Cl)c(-c2cnc3c(F)cccn23)n1 [Example 227, 2-[4-[[5-chloro-4-(8-fluoroimidazo[1,2-a]pyridin-3-yl)pyrimidin-2-yl]amino]-3-methoxy-N-methyl-anilino]-1-piperazin-1-yl-ethanone]

Continued, compound first:

SMILES	IC50 [nM]
COc1cc(C2CCNCC2)ccc1Nc1ncc(C)c(-c2cnc3c(F)cccn23)n1 [Example 197, 4-(8-fluoroimidazo[1,2-a]pyridin-3-yl)-N-[2-methoxy-4-(4-piperidyl)phenyl]-5-methyl-pyrimidin-2-amine]	13
COc1cc(C2CCN(C(=O)CO)CC2)ccc1Nc1ncc(C)c(-c2cnc3c(F)cccn23)n1 [Example 198, 1-[4-[4-[[4-(8-fluoroimidazo[1,2-a]pyridin-3-yl)-5-methyl-pyrimidin-2-yl]amino]-3-methoxy-phenyl]-1-piperidyl]-2-hydroxy-ethanone]	26
COc1ccc(N2CCNCC2)cc1Nc1ncc(C)c(-c2cnc3c(F)cccn23)n1 [Example 199, 4-(8-fluoroimidazo[1,2-a]pyridin-3-yl)-N-(2-methoxy-5-piperazin-1-yl-phenyl)-5-methyl-pyrimidin-2-amine]	110
COc1cc(C2CCN(C(=O)[C@@H](C)O)CC2)ccc1Nc1ncc(C)c(-c2cnc3c(F)cccn23)n1 [Example 200, (2R)-1-[4-[4-[[4-(8-fluoroimidazo[1,2-a]pyridin-3-yl)-5-methyl-pyrimidin-2-yl]amino]-3-methoxy-phenyl]-1-piperidyl]-2-hydroxy-propan-1-one]	32
COc1cc(N2CCN(C(C)=O)CC2)ccc1Nc1ncc(C2CC2)c(-c2cnc3c(F)cccn23)n1 [Example 201, 1-[4-[4-[[5-cyclopropyl-4-(8-fluoroimidazo[1,2-a]pyridin-3-yl)pyrimidin-2-yl]amino]-3-methoxy-phenyl]piperazin-1-yl]ethanone]	88
COc1cc(C2CCN(C(C)=O)CC2)ccc1Nc1ncc(C2CC2)c(-c2cnc3c(F)cccn23)n1 [Example 202, 1-[4-[4-[[5-cyclopropyl-4-(8-fluoroimidazo[1,2-a]pyridin-3-yl)pyrimidin-2-yl]amino]-3-methoxy-phenyl]-1-piperidyl]ethanone]	96
COc1cc(N2CC3CN(C)CC(C2)O3)ccc1Nc1ncc(Cl)c(-c2cnc3c(F)cccn23)n1 [Example 203, 5-chloro-4-(8-fluoroimidazo[1,2-a]pyridin-3-yl)-N-[2-methoxy-4-(7-methyl-9-oxa-3,7-diazabicyclo[3.3.1]nonan-3-yl)phenyl]pyrimidin-2-amine]	9
COc1cc(N2CC3CN(CC(=O)N(C)C)CC(C2)O3)ccc1Nc1ncc(Cl)c(-c2cnc3c(F)cccn23)n1 [Example 205, 2-[3-[4-[[5-chloro-4-(8-fluoroimidazo[1,2-a]pyridin-3-yl)pyrimidin-2-yl]amino]-3-methoxy-phenyl]-9-oxa-3,7-diazabicyclo[3.3.1]nonan-7-yl]-N,N-dimethyl-acetamide]	7
COc1cc(N2CC3CN(CCS(C)(=O)=O)CC(C2)O3)ccc1Nc1ncc(Cl)c(-c2cnc3c(F)cccn23)n1 [Example 207, 5-chloro-4-(8-fluoroimidazo[1,2-a]pyridin-3-yl)-N-[2-methoxy-4-[3-(2-methylsulfonylethyl)-9-oxa-3,7-diazabicyclo[3.3.1]nonan-7-yl]phenyl]pyrimidin-2-amine]	19
CNCC(=O)N1CC2CN(c3ccc(Nc4ncc(Cl)c(-c5cnc6c(F)cccn56)n4)c(OC)c3)CC(C1)O2 [Example 208, 1-[3-[4-[[5-chloro-4-(8-fluoroimidazo[1,2-a]pyridin-3-yl)pyrimidin-2-yl]amino]-3-methoxy-phenyl]-9-oxa-3,7-diazabicyclo[3.3.1]nonan-7-yl]-2-(methylamino)ethanone]	26
COc1cc(N2CC3CN(C(=O)CN)CC(C2)O3)ccc1Nc1ncc(Cl)c(-c2cnc3c(F)cccn23)n1 [Example 209, 2-amino-1-[7-[4-[[5-chloro-4-(8-fluoroimidazo[1,2-a]pyridin-3-yl)pyrimidin-2-yl]amino]-3-methoxy-phenyl]-9-oxa-3,7-diazabicyclo[3.3.1]nonan-3-yl]ethanone]	30
COc1cc(N2CC3CN(C(=O)[C@@H](N)CO)CC(C2)O3)ccc1Nc1ncc(Cl)c(-c2cnc3c(F)cccn23)n1 [Example 210, (2S)-2-amino-1-[7-[4-[[5-chloro-4-(8-fluoroimidazo[1,2-a]pyridin-3-yl)pyrimidin-2-yl]amino]-3-methoxy-phenyl]-9-oxa-3,7-diazabicyclo[3.3.1]nonan-3-yl]-3-hydroxy-propan-1-one]	36
COc1cc(N2CC3CN(C(=O)CN(C)C)CC(C2)O3)ccc1Nc1ncc(Cl)c(-c2cnc3c(F)cccn23)n1 [Example 211, 1-[3-[4-[[5-chloro-4-(8-fluoroimidazo[1,2-a]pyridin-3-yl)pyrimidin-2-yl]amino]-3-methoxy-phenyl]-9-oxa-3,7-diazabicyclo[3.3.1]nonan-7-yl]-2-(dimethylamino)ethanone]	19
COc1cc(N2CC3CN(C(=O)CO)CC(C2)O3)ccc1Nc1ncc(Cl)c(-c2cnc3c(F)cccn23)n1 [Example 212, 1-[7-[4-[[5-chloro-4-(8-fluoroimidazo[1,2-a]pyridin-3-yl)pyrimidin-2-yl]amino]-3-methoxy-phenyl]-9-oxa-3,7-diazabicyclo[3.3.1]nonan-3-yl]-2-hydroxy-ethanone]	19
